The results in this text go back to patent US20250089707A1, “ECO-FRIENDLY QUARANTINE COMPOSITION HAVING FUNCTION OF KILLING PHOSPHOLIPID ENVELOPED VIRUS” (priority 2022, published 2025).

The test system of assay [1] is human epithelial keratinocyte cells (HaCaT). Description: Cytotoxicity, MTT, HaCaT. As to conditions: 24 hours treatment.
Assay [2] relates to human monocyte cells (THP-1). Description: Cytotoxicity, MTT, THP-1. The note with it: THP-1, 24 hours treatment.
In assay [3] the test system is human bronchial epithelial cells (BEAS-2B). As to the kind of experiment: Cytotoxicity, MTT, BEAS-2B. As to conditions: 24 hours treatment.
In the next assay the test system is Bacillus subtilis. Description: Antibacterial activity, paper disc method.
The test system of assay [4] is Staphylococcus epidermidis. Description: Antibacterial activity, paper disc method.
Another assay relates to Escherichia coli. Description: Antibacterial activity, paper disc method.
In a further assay the test system is Staphylococcus aureus. As to the kind of experiment: Antibacterial activity, paper disc method.
The next assay concerns Streptococcus mutans. As to the kind of experiment: Antibacterial activity, paper disc method.
Another assay deals with Pseudomonas aeruginosa. As to the kind of experiment: Antibacterial activity, paper disc method.
For a further assay, the system named is Salmonella typhimurium. As to the kind of experiment: Antibacterial activity, paper disc method.

As to `CCCCCCCCCCCCCCCCCC(=O)[O-].[Na+]` [Example P-3, Sodium stearate], the entries for the “IC50 value (%)” value in [1], in assay [2] and in [3] were 0.005292%, 0.4165% and 0.00969%, respectively. Also, the MIC (with Bacillus subtilis; in assay [4]; against Escherichia coli; in the assay on Staphylococcus aureus; against Streptococcus mutans; against Pseudomonas aeruginosa) was at least 100 μg/50 μl throughout. In the assay with Salmonella typhimurium, the MIC was at least 100 μg/50 μl.
